Laboratory results published in patent US9642854B2, “Flavanoid compounds and process for preparation thereof” (Council of Scientific & Industrial Research, priority 2009, dated 2017).

What was measured:
Assay type in all cases: cell-based, Helicobacter pylori
H. pylori [1] = experiment: Anti H. pylori screening by disc diffusion susceptibility assay; parameters: key: strongly active (diameter>30 mm) and were given a score of 3^+; intermediate active (^˜20-30 mm diameter) and were given a score of 2^+; moderately active (^˜10-20 min diameter) and were given a score of 1^+; not active (>10 mm diameter); conditions: 100 and 200 μg/disc, majority of the strains
Method: (§1) The discs were impregnated with […] of each of the compounds, dissolved either in ethanol or DMSO, and the zone of inhibition was measured after 72 h of growth under microaerophilic conditions at 37° C. Inhibition zone diameter ranging 10-20 mm was given a score of ^+, 20-30 mm as ^++ and that of >30 mm as ^+++, as obtained employing dose range of […]/disc. The detailed structural information of the molecules is provided under ‘Description of the Compounds’.
(§2) Methods and protocols for the determination of inhibition zone diameter are as stated under Experiment 1, and that of MIC values by microbroth dilution assay as in Experiment 3. ‘Nil’ means zone of inhibition below 10 mm.
(§3) The anti H. pylori activity of all 16 flavonoid molecules, 2 naturally isolated and 14 synthetic derivatives, was screened by disc diffusion sensitivity assay employing 2 clinical strains HP001 and HP002, and three standard strains ATCC® 700392, 43504 and 49503. A 0.5 mL inoculum (10^8 CFU/mL) for each bacterial strain tested was flooded on freshly prepared Brain Heart Infusion (BHI) agar plates supplemented with 7% FCS, 0.5% IsoVitalex and 0.0025% DENT® and the discs (5 mm diameter) containing different compounds or antibiotics (dissolved either in ethanol or DMSO) were placed on the agar surface. After incubation for 3 days in a microaerophilic atmosphere at 37° C., the diameter of the zone of inhibition was measured (Glupczynsky, 1996; McNulty et al., 2002).

H. pylori [2] = experiment: Anti H. pylori spectrum (MIC) by agar dilution method; conditions: for MIC50: MIC against 50% of the strains of the panel; for MIC Range: panel of 6 clinical isolates and 4 standard strains
Procedure, shortened: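 Agar dilution per CLSI against six clinical isolates and four standard strains on BHI agar with 7% FCS, 0.5% IsoVitalex and DENT. Inoculum ~10^8 CFU/mL; 2-fold compound dilutions from 1.56-100; 72 h microaerophilic at 37 °C. MIC read visually as no growth, in duplicate; MIC50 covers 50% of strains.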

H. pylori [3] = experiment: Anti H. pylori screening by disc diffusion susceptibility assay; parameters: key: strongly active (3^+, diameter>30 mm); intermediate active (2^+, ˜20-30 mm diameter); moderately active (1^+, ˜10-20 mm diameter); not active (<10 mm diameter); conditions: two doses, majority of the strains
Method: as §1, §2, §3

H. pylori [4] = experiment: as above; conditions: 100 and 200 mg/disc (so in the source), 72 h
Procedure, shortened: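 Clinical strains HP001, HP002 and ATCC 700392, 43504, 49503 (10^8 CFU/mL) spread on supplemented BHI agar; 5 mm discs loaded with 100 and 200 […] compound in ethanol or DMSO. Zones read after 72 h microaerophilic growth at 37 °C; scored + (10-20 mm), ++ (20-30 mm), +++ (>30 mm), Nil <10 mm.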

`COc1c(O)cc2oc(-c3ccccc3)cc(=O)c2c1O` [Oroxylin A, reference compound] was tested, and the “Activity class by inhibition zone diameter” value (H. pylori [1]) was “not active”, the MIC50 (H. pylori [2]) was “much higher” and the “MIC Range” value (H. pylori [2]) was “much higher”. For the same compound, the “Activity class by inhibition zone diameter” value (H. pylori [3]) was “not active”, the “Inhibition zone diameter (score)” value (H. pylori [4]; ATCC standard strain 43504) was “Nil (‘Nil’ means zone of inhibition below 10 mm)” and the “Inhibition zone diameter (score)” value (H. pylori [4]; ATCC standard strain 49503) was “Nil (‘Nil’ means zone of inhibition below 10 mm)”. The “Inhibition zone diameter (score)” value (H. pylori [4]; ATCC standard strain 700392) was “Nil (‘Nil’ means zone of inhibition below 10 mm)”, the “Inhibition zone diameter (score)” value (H. pylori [4]; clinical strain HP001) was “Nil (‘Nil’ means zone of inhibition below 10 mm)” and the “Inhibition zone diameter (score)” value (H. pylori [4]; clinical strain HP002) was “Nil (‘Nil’ means zone of inhibition below 10 mm)”.
With `CCCCCCCCCCCCCCCCC(=O)Oc1cc2oc(-c3ccccc3)cc(=O)c2c(O)c1OC` [ORC-16, Heptadecanoic acid 5-hydroxy-6-methoxy-4-oxo-2-phenyl-4H-chromen-7-yl ester] the “Activity class by inhibition zone diameter” value (H. pylori [1]) was “not active”, the “Activity class by inhibition zone diameter” value (H. pylori [3]) was “not active” and the “Inhibition zone diameter (score)” value (H. pylori [4]; ATCC standard strain 43504) was “Nil (‘Nil’ means zone of inhibition below 10 mm)”. The “Inhibition zone diameter (score)” value (H. pylori [4]; ATCC standard strain 49503) was “Nil (‘Nil’ means zone of inhibition below 10 mm)”, the “Inhibition zone diameter (score)” value (H. pylori [4]; ATCC standard strain 700392) was “Nil (‘Nil’ means zone of inhibition below 10 mm)” and the “Inhibition zone diameter (score)” value (H. pylori [4]; clinical strain HP001) was “Nil (‘Nil’ means zone of inhibition below 10 mm)”. For the same compound, the “Inhibition zone diameter (score)” value (H. pylori [4]; clinical strain HP002) was “Nil (‘Nil’ means zone of inhibition below 10 mm)”.
With `O=c1cc(-c2ccccc2)oc2cc(O)cc(O)c12` [Chrysin, 5,7-Dihydroxy-2-phenyl-chromen-4-one, reference compound] the “Activity class by inhibition zone diameter” value (H. pylori [1]) was “not active”, the MIC50 (H. pylori [2]) was “much higher” and the “MIC Range” value (H. pylori [2]) was “much higher”. For the same compound, the “Activity class by inhibition zone diameter” value (H. pylori [3]) was “not active”, the “Inhibition zone diameter (score)” value (H. pylori [4]; ATCC standard strain 43504) was “Nil (‘Nil’ means zone of inhibition below 10 mm)” and the “Inhibition zone diameter (score)” value (H. pylori [4]; ATCC standard strain 49503) was “Nil (‘Nil’ means zone of inhibition below 10 mm)”. The “Inhibition zone diameter (score)” value (H. pylori [4]; ATCC standard strain 700392) was “Nil (‘Nil’ means zone of inhibition below 10 mm)”, the “Inhibition zone diameter (score)” value (H. pylori [4]; clinical strain HP001) was “Nil (‘Nil’ means zone of inhibition below 10 mm)” and the “Inhibition zone diameter (score)” value (H. pylori [4]; clinical strain HP002) was “Nil (‘Nil’ means zone of inhibition below 10 mm)”.
For `O=c1cc(-c2ccccc2)oc2cc(OCCCN3CCOCC3)cc(O)c12` [CHM-2, 5-Hydroxy-7-(3-morpholin-4-yl-propoxy)-2-phenyl-chromen-4-one], the “Activity class by inhibition zone diameter” value (H. pylori [1]) was “not active”, the “Activity class by inhibition zone diameter” value (H. pylori [3]) was “not active” and the “Inhibition zone diameter (score)” value (H. pylori [4]; ATCC standard strain 43504) was “Nil (‘Nil’ means zone of inhibition below 10 mm)”. The “Inhibition zone diameter (score)” value (H. pylori [4]; ATCC standard strain 49503) was “Nil (‘Nil’ means zone of inhibition below 10 mm)”, the “Inhibition zone diameter (score)” value (H. pylori [4]; ATCC standard strain 700392) was “Nil (‘Nil’ means zone of inhibition below 10 mm)” and the “Inhibition zone diameter (score)” value (H. pylori [4]; clinical strain HP001) was “Nil (‘Nil’ means zone of inhibition below 10 mm)”. The “Inhibition zone diameter (score)” value (H. pylori [4]; clinical strain HP002) was “Nil (‘Nil’ means zone of inhibition below 10 mm)”.
